Test results: US8653270B2, “Compounds as receptor modulators with therapeutic utility” (Allergan, Inc., priority 2010, dated 2014)

Tests used:
[1] = system: blood lymphocytes; test: Lymphopenia assay in mice; type: in vivo; details: female C57BL6 mice, 10 mg/Kg subcutaneously, after 24 hours
Description: Test drugs are prepared in a solution containing 3% (w/v) 2-hydroxy propyl β-cyclodextrin (HPBCD) and 1% DMSO to a final concentration of 1 mg/ml, and subcutaneously injected to female C57BL6 mice (CHARLES RIVERS) weighing 20-25 g at the dose of 10 mg/Kg. Blood samples are obtained by puncturing the submandibular skin with a Goldenrod animal lancet at 24, 48, 72, and 96 hrs post drug application. Blood is collected into microvettes (SARSTEDT) containing EDTA tripotassium salt. Lymphocytes in blood samples are counted using a HEMAVET Multispecies Hematology System, HEMAVET HV950FS (Drew Scientific Inc.).
(Hale, J. et al Bioorg. & Med. Chem. Lett. 14 (2004) 3351).
A lymphopenia assay in mice; as previously described, was employed to measure the in vivo blood lymphocyte depletion after dosing with (2S)-2-amino-3-oxo-3-({4-[(5-phenylpentyl)oxy]-3-(2-thienyl)phenyl}amino)propyl dihydrogen phosphate. This S1P1 agonist is useful for S1P-related diseases and exemplified by the lymphopenia in vivo response. […] Lymphocytes in blood samples were counted using a HEMAVET Multispecies Hematology System, HEMAVET HV950FS (Drew Scientific Inc.). […]

[2] = target: T1, human S1P1 receptor (Homo sapiens, UniProt P21453); test: GTP γ35S binding assay for S1P1 activity; type: biochemical; details: membranes of cells stably expressing S1P1 receptor, 30 min at 25° C.
T1 construct: expressed in transfected cells; membranes used
T1 sequence (P21453 whole entry): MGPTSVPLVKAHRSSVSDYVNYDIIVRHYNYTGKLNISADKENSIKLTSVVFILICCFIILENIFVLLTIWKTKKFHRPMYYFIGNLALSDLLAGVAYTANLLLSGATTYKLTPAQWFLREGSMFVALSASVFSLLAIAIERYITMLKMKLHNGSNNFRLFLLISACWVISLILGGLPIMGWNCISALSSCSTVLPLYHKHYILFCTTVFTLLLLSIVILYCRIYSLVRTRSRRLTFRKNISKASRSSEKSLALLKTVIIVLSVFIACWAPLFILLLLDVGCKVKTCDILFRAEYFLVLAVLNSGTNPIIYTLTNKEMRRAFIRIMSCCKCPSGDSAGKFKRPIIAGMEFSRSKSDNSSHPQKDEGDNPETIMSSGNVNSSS
Description: Compounds were tested for S1P1 activity using the GTP γ^35S binding assay. These compounds may be assessed for their ability to activate or block activation of the human S1P1 receptor in cells stably expressing the S1P1 receptor.
GTP γ^35S binding was measured in the medium containing (mM) HEPES 25, pH 7.4, MgCl2 10, NaCl 100, dithitothreitol 0.5, digitonin 0.003%, 0.2 nM GTP γ^35S, and 5 μg membrane protein in a volume of 150 μl. Test compounds were included in the concentration range from 0.08 to 5,000 nM unless indicated otherwise. Membranes were incubated with 100 μM 5′-adenylylimmidodiphosphate for 30 min, and subsequently with 10 μM GDP for 10 min on ice. Drug solutions and membrane were mixed, and then reactions were initiated by adding GTP γ^35S and continued for 30 min at 25° C. Reaction mixtures were filtered over Whatman GF/B filters under vacuum, and washed three times with 3 mL of ice-cold buffer (HEPES 25, pH 7.4, MgCl2 10 and NaCl 100). Filters were dried and mixed with scintillant, and counted for ^35S activity using a β-counter. Agonist-induced GTP γ^35S binding was obtained by subtracting that in the absence of agonist. Binding data were analyzed using a non-linear regression method. In case of antagonist assay, the reaction mixture contained 10 nM S1P in the presence of test antagonist at concentrations ranging from 0.08 to 5000 nM. Activity potency: S1P1 receptor from GTP γ^35S: nM, (EC50),

EC50 [2] [nM] | Compound | lymphocyte count (number of lymphocytes 10^3/μL blood) [1]
3 | N[C@@H](COP(=O)(O)O)C(=O)Nc1ccc(OCCCCCc2ccccc2)c(-c2cccs2)c1 [Compound 4, (2S)-2-amino-3-oxo-3-({4-[(5-phenylpentyl)oxy]-3-(2-thienyl)phenyl}amino)propyl dihydrogen phosphate] | < 1 10^3/μL blood
34 | C[C@](N)(COP(=O)(O)O)C(=O)Nc1ccc(OCCCCCc2ccccc2)c(-c2cccs2)c1 [Compound 2, (2S)-2-amino-2-methyl-3-oxo-3-({4-[(5-phenylpentyl)oxy]-3-(2-thienyl)phenyl}amino)propyl dihydrogen phosphate] | 
96 | C[C@@](N)(COP(=O)(O)O)C(=O)Nc1ccc(OCCCCCc2ccccc2)c(-c2cccs2)c1 [Compound 1, (2R)-2-amino-2-methyl-3-oxo-3-({4-[(5-phenylpentyl)oxy]-3-(2-thienyl)phenyl}amino)propyl dihydrogen phosphate] | 

Compound | EC50 [2] [nM] | lymphocyte count (number of lymphocytes 10^3/μL blood) [1]
(2S)-2-amino-3-({3-(2-furyl)-4-[(5-phenylpentyl)oxy]phenyl}amino)-3-oxopropyl dihydrogen phosphate [Compound 3] | 8 | 
